Where two headings read alike, the source gives them in different places.
Key:
[1] = target: T1, mUSP18 (Mus musculus, UniProt Q9WTV6); assay: High-throughput screening, ISG15ct-RhoMP, single dose 1.25 µM; type: biochemical, murine
T1 construct: (46-368); His-tag (N); made in house
T1 sequence (Q9WTV6 46-368): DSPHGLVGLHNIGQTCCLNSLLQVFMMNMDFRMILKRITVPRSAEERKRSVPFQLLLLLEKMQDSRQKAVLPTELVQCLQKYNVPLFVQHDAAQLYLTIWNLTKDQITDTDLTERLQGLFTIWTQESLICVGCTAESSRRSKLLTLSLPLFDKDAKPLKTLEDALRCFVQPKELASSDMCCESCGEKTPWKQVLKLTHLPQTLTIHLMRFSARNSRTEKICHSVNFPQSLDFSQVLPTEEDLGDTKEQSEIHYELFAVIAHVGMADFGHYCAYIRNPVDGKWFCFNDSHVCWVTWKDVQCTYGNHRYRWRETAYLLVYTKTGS

[2] = target: T2, SENP1 (Homo sapiens, UniProt Q9P0U3); assay: High-throughput screening, single dose 1.25 µM; type: biochemical; settings: for %inhibition SENP1: crude in-plate synthesized compound, 1.25 µM assuming full conversion; for inhibition at 1.25 µM: individual amine building block (plate NCN-5), read-out: BB %inhibition SENP1
T2 sequence (Q9P0U3 419-644): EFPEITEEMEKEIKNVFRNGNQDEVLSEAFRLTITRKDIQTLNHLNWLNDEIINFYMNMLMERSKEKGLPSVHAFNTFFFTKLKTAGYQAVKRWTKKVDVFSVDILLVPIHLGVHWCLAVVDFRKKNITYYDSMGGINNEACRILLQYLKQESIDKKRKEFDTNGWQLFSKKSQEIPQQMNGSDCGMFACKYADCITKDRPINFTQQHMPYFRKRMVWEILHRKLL
Procedure: (§1) Since the in‐plate synthesis was conducted in 1536‐well Echo plates, the compounds could readily be transferred from these plates into 1536‐well assay plates using acoustic liquid dispensing (Figure 2a) and subjected to HTS. We screened the whole 7536 compound library against a panel of twelve enzymes, including three DUBs from the UCH family, two DUBs from the OTU family, five DUBs from the USP family, plus ISG15 protease USP18, and SUMO protease SENP1. Each compound was tested at a single dose of 1.25 µM, assuming full conversion (10 mM in DMSO of the formed products) during the in‐plate synthesis, using the fluorogenic assay described above. […] The compounds are sorted by the amine building blocks (BB1‐16), and within each BB, sorted by carboxylic acid (CA1‐471), thereby providing a comprehensive and systematic overview of the overall inhibition by each BB and CA combination. Some interesting patterns can be obtained from this map. […] Indeed, BB10 is the privileged scaffold for UCHL1 as it originates from UCHL1 inhibitor 5 (Figure 1). […] On the other hand, OTUD1 and USP32 show a much higher hit rate, and this is even more pronounced for USP30 and ISG15 protease mUSP18, each showing many active compounds distributed over several BB's.
(§2) Purified recombinant enzymes used in this study
(§3) High-throughput screening
(§4) The screens were performed at room temperature in “flat bottom, non-treated, black […]
(§5) µM. The compounds (10 nL each) were transferred from the 1 mM daughter plates to the […]
(§6) Four wells containing DMSO
(§7) (10 nL) and four wells containing NEM (10 mM final concentration) were used in each plate […]
(§8) solution (1.33x final concentration) was added to each well, followed by incubation for 30 min.
(§9) Next, 2 µL of a substrate solution (4x final concentration) was added to each well (Ub-RhoMP[2]
(§10) After 1h or 2h incubation the
(§11) The percentage inhibition was calculated for each well using the […]
(§12) Where FIx is the fluorescence intensity of each well, FIpos is the average fluorescence intensity of the positive (NEM) control wells, and FIneg is the average fluorescence intensity of the negative (DMSO) control wells.

[3] = target: T3, USP30 (Homo sapiens, UniProt Q70CQ3); assay: High-throughput screening, Ub-RhoMP, single dose 1.25 µM; type: biochemical; set-up: USP30 CD (57-517); purchased Ubiquigent 64-0057-050; settings: for %inhibition USP30: crude in-plate synthesized compound, 1.25 µM assuming full conversion; for BB %inhibition USP30: individual amine building block (plate NCN-5)
T3 sequence (Q70CQ3 57-517): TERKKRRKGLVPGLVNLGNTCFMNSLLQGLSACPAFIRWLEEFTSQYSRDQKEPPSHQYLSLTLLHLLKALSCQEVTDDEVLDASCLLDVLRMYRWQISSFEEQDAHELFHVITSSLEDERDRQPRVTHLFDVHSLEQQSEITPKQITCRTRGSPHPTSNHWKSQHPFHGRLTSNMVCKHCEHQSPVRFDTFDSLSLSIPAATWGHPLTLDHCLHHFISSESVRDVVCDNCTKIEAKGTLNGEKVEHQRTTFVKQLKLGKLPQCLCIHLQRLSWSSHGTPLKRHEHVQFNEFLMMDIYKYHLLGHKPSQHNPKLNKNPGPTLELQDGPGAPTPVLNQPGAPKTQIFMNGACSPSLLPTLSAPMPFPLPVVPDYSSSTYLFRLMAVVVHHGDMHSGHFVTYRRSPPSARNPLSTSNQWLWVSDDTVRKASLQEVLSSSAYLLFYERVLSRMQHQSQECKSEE
Procedure: as §1, §2, §3, §4, §5, §6, §7, §8, §9, §10, §11, §12

[4] = target: T4, OTUD1 (Homo sapiens, UniProt Q5VV17); assay: as above; type: biochemical; settings: crude in-plate synthesized compound, 1.25 µM assuming full conversion
T4 sequence (Q5VV17 287-481): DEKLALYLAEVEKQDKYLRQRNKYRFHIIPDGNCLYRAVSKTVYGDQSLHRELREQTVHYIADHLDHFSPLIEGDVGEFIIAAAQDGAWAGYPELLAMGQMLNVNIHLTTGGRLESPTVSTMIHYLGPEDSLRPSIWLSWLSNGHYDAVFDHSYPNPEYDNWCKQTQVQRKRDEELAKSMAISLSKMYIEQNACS
Procedure: as §1, §2, §3, §4, §5, §6, §7, §8, §9, §10, §11, §12

[5] = target: T5, UCHL1 (Homo sapiens, UniProt P09936); assay: as above; type: biochemical; settings: for %inhibition UCHL1: crude in-plate synthesized compound, 1.25 µM assuming full conversion; for inhibition at 1.25 µM: individual amine building block (plate NCN-5), read-out: BB %inhibition UCHL1
T5 construct: (1-223); made in house
T5 sequence (P09936 1-223): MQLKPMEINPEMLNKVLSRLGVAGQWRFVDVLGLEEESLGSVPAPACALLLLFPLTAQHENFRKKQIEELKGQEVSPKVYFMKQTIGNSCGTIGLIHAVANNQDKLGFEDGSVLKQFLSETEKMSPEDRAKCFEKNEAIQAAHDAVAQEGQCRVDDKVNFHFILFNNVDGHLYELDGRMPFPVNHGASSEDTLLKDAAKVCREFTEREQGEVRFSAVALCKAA
Procedure: as §1, §2, §3, §4, §5, §6, §7, §8, §9, §10, §11, §12

[6] = target: T6, UCHL3 (Homo sapiens, UniProt P15374); assay: as above; type: biochemical; settings: for %inhibition UCHL3: crude in-plate synthesized compound, 1.25 µM assuming full conversion; for inhibition at 1.25 µM: individual amine building block (plate NCN-5), read-out: BB %inhibition UCHL3
T6 construct: (1-230); made in house
T6 sequence (P15374 1-230): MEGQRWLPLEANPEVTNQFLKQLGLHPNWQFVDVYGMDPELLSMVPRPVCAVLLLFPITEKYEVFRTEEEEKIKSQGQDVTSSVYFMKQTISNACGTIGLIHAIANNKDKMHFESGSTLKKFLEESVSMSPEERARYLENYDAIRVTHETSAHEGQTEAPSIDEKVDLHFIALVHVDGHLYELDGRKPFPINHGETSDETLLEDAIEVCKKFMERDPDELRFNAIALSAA
Procedure: as §1, §2, §3, §4, §5, §6, §7, §8, §9, §10, §11, §12

[7] = target: USP16 (Homo sapiens, UniProt Q9Y5T5); assay: as above; type: biochemical; set-up: (22-823); His-tag (N); made in house; settings: for %inhibition USP16: crude in-plate synthesized compound, 1.25 µM assuming full conversion; for BB %inhibition USP16: individual amine building block (plate NCN-5)
Procedure: as §1, §2, §3, §4, §5, §6, §7, §8, §9, §10, §11, §12

[8] = crude in-plate synthesized compound, 1.25 µM assuming full conversion, read-out: %inhibition mUSP18
[9] = individual amine building block (plate NCN-5), read-out: BB %inhibition mUSP18

Chain of USP16 (Q9Y5T5 22-823): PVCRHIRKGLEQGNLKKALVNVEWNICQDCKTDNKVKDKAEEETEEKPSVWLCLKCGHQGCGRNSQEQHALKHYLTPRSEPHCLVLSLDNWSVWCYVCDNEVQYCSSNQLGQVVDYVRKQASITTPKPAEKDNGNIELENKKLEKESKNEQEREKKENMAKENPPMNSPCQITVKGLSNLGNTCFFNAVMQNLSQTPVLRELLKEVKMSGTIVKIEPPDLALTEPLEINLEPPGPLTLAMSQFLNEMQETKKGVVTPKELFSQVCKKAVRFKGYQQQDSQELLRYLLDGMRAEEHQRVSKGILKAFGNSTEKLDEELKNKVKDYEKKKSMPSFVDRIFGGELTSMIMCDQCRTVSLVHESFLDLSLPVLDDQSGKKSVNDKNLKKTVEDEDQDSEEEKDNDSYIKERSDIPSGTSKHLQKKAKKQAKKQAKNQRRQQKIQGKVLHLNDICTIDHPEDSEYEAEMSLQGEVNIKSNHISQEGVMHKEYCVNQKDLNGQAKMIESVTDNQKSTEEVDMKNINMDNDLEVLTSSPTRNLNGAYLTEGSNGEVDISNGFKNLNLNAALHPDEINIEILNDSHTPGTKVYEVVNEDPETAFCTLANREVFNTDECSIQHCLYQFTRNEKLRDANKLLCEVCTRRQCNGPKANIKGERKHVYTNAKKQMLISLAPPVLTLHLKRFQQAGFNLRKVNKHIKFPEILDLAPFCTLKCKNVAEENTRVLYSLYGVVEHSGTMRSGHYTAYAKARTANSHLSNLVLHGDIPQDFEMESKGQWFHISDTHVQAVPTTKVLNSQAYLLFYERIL

Structure (SMILES)	inhibition at 1.25 µM [1, 8] [%]	%inhibition SENP1 [2] [%]	%inhibition USP30 [3] [%]	%inhibition OTUD1 [4] [%]	%inhibition UCHL1 [5] [%]	%inhibition UCHL3 [6] [%]	%inhibition USP16 [7] [%]	inhibition at 1.25 µM [1, 9] [%]	inhibition at 1.25 µM [2] [%]	BB %inhibition USP30 [3] [%]	inhibition at 1.25 µM [5] [%]	inhibition at 1.25 µM [6] [%]	BB %inhibition USP16 [7] [%]
N#CN1CC[C@@H](NC(=O)CCN(Cc2ccccc2)S(=O)(=O)c2c(Cl)cccc2Cl)C1 [BB01CA93]	74.1	8.6	101.1	1.5	9.7	16.3	20.5						
N#CN1CC[C@@H](NC(=O)c2nc(N3CCCC3)ncc2Cl)C1 [BB01CA90]	27.1	16.6	54.5	7.7	15.1	19.3	11.4						
N#CN1CCC(N)CC1 [BB2]								4.3	-2.9	4.8	4	3.9	8.1
N#CN1CC[C@@H](N)C1 [BB1]								6.8	1.3	5.9	2.6	5.9	7.2
N#CN1CC[C@H](C(=O)Nc2nc3c(s2)CNCC3)C1 [BB10]								0.154	-5.4	-2.0	~35	-5.1	-2.4

Now from value to compound:

inhibition at 1.25 µM [1, 8] [%]	%inhibition SENP1 [2] [%]	%inhibition USP30 [3] [%]	%inhibition OTUD1 [4] [%]	%inhibition UCHL1 [5] [%]	%inhibition UCHL3 [6] [%]	%inhibition USP16 [7] [%]	inhibition at 1.25 µM [1, 9] [%]	inhibition at 1.25 µM [2] [%]	BB %inhibition USP30 [3] [%]	inhibition at 1.25 µM [5] [%]	inhibition at 1.25 µM [6] [%]	BB %inhibition USP16 [7] [%]	Structure (SMILES)
							-1.5	0.5	-2.4	1	-2.2	-0.5	N#CN1CCC[C@H](N)C1 [BB8]
95													Cc1cc(C(=O)N[C@H]2C[C@@H]3CN(C#N)C[C@@H]3C2)ccc1Br [BB07CA28]
							-3.8	-12.3	-5.7	-2.6	-5.7	-4.8	N#CN1CC[C@H](CN)C1 [BB11]
							3.1	-1	3.7	1.1	0.6	5.8	N#CN1CC[C@H](N)C1 [BB3]
							-0.216	-5.2	-0.656	3.8	-0.9	1.2	N#CN1CC(N)C1 [BB5]
							3.9	-2.1	5.1	3.6	2	5.0	N#CN1CCC[C@@H](N)C1 [BB4]

Reference: publication PMC12668310, “High‐Throughput Synthesis and Screening of a Cyanimide Library Identifies Selective Inhibitors of ISG15‐Specific Protease mUSP18” (Angewandte Chemie (International Ed. in English), 2025)
